Data reported in patent US20110039885A1, “METHODS FOR INCREASING ENDOTHELIAL PROGENITOR CELLS” (FibroGen, Inc., priority 2007, published 2011).

Experiments:
Type in all cases: in vivo, mouse
[1] = test system: endothelial progenitor cells (EPCs), double positive KDR+/CD34+ cells, in blood; assay: Blood EPC levels by FACS after oral dosing in mice; settings: for Blood EPCs / Percent Blood EPCs: blood 6 h after final dose; for Blood EPCs Fold Increase Over Control / Percent Blood EPCs Fold Increase Over Control: vs vehicle control
Procedure: (§1) To examine the effect of compounds and methods of the present invention on endothelial progenitor cell (EPC) mobilization and EPC levels, the following studies were performed. Male Swiss-Webster mice were administered various compounds of the present invention via oral gavage using a ball-tipped gavage needle. Animals treated by oral gavage received a 10 ml/kg volume of either 0.5% carboxymethyl cellulose (CMC) with 0.1% Polysorbate 80 (vehicle control) or various doses (10-100 mg/kg) of a compound of the present invention in 0.5% CMC with 0.1% Polysorbate 80. Animals were dosed once daily for 3 or 4 days. Six hours after the final dosing, 200 μl blood samples were collected for detection of EPCs by FACS analysis as previously described. (Vasa et al. (2001) Circ Res 89:e1-e7.) Briefly, mononuclear cells were isolated from whole blood samples by erythrocyte depletion using red blood cell lysis buffer (eBioscience) according to the manufacturer's instructions. The remaining cells were incubated for one hour with monoclonal antibodies directed against mouse CD34 and mouse KDR, cell surface markers for EPCs (BD Pharmingen). Following incubation with the anti-CD34 and anti-KDR monoclonal antibodies, the samples were washed three times with sort buffer (PBS, 1% fetal bovine serum) and resuspended in sort buffer containing 50 μg/ml of propidium iodide. Samples were then analyzed for the presence and quantitation of EPCs by flow cytometry (FACS Calibur, Becton Dickinson). The cytometer was set to acquire 10 000 events. Two or three samples obtained from each animal were analyzed and the average recorded. EPCs were determined as double positive KDR+/CD34+ cells.

[2] = test system: endothelial progenitor cells (EPCs), KDR+/CD34+ cells, in bone marrow; assay: Bone marrow EPC levels by FACS after oral dosing in mice; settings: for Percent Bone Marrow EPCs: tibia bone marrow 6 h after final dose; for Percent Bone Marrow EPCs Fold Increase Over Control: vs vehicle control
Procedure: as §1
To examine the effect of compounds and methods of the present invention on EPC levels in bone marrow, the following studies were performed. Male Swiss-Webster mice were administered various compounds of the present invention via oral gavage using a ball-tipped gavage needle. Animals treated by oral gavage received a 10 ml/kg volume of either 0.5% carboxymethyl cellulose (CMC) with 0.1% Polysorbate 80 (vehicle control) or various doses (10-100 mg/kg) of a compound of the present invention in 0.5% CMC with 0.1% Polysorbate 80. Animals were dosed once daily for 3 or 4 days. Six hours after the final dosing, bone marrow samples were taken from one tibia of each animal and suspended in buffer (PBS with 1% fetal bovine serum). Bone marrow suspensions were then filtered through nylon filters to remove stromal cells. Following filtration, the remaining cells were counted manually using a hemocytometer. Detection and quantitation of EPCs was performed by FACS analysis as described above in Example 1.

[3] = test system: colony-forming unit-endothelial cells (CFU-EC) from blood; assay: EPC colony forming assay (CFU-EC) ex vivo, blood of dosed mice; settings: for Blood CFU-EC: blood 6 h after final dose, 12 days culture; for Blood CFU-EC Fold Increase Over Control: vs vehicle control
Procedure: To examine the effect of compounds and methods of the present invention on increasing EPCs, wherein the EPCs are functional EPCs, i.e., EPCs that are able to differentiate into mature endothelial cells, the following studies were performed in which the frequency of endothelial colony-forming cells was evaluated ex vivo. In one series of experiments, male Swiss-Webster mice were administered various compounds of the present invention via oral gavage using a ball-tipped gavage needle. Animals treated by oral gavage received a 10 ml/kg volume of either 0.5% carboxymethyl cellulose (CMC) with 0.1% Polysorbate 80 (vehicle control) or various doses (10-100 mg/kg) of a compound of the present invention in 0.5% CMC with 0.1% Polysorbate 80. Animals were dosed once daily for 3 or 4 days. Six hours after the final dosing, 200 μl blood samples were collected for analysis of EPC function and differentiation using an EPC colony forming assay. EPC colony forming assays were carried out as previously described. (Murphy et al. (2007) Arterioscler Thromb Vasc Biol 27:936-942.) Briefly, mononuclear cells were isolated from whole blood samples by erythrocyte depletion using red blood cell lysis buffer (eBioscience) according to the manufacturer's instructions. The remaining cells (50,000 cells/well) were plated on fibronectin coated 24-well dishes (BD, BioSciences Discovery Labware) and incubated in endothelial growth media (EGM-2 media, Cambrex) for 12 days. At the end the incubation period, EPC colonies were counted.

[4] = test system: colony-forming unit-endothelial cells (CFU-EC) from bone marrow; assay: EPC colony forming assay (CFU-EC) ex vivo, bone marrow of dosed mice; settings: for Bone Marrow CFU-EC: tibia bone marrow 6 h after final dose, 12 days culture; for Bone Marrow CFU-EC Fold Increase Over Control: vs vehicle control
Procedure: EPC colony forming assays were carried out as previously described. (Murphy et al. (2007) Arterioscler Thromb Vasc Biol 27:936-942.) Briefly, mononuclear cells were isolated from whole blood samples by erythrocyte depletion using red blood cell lysis buffer (eBioscience) according to the manufacturer's instructions. The remaining cells (50,000 cells/well) were plated on fibronectin coated 24-well dishes (BD, BioSciences Discovery Labware) and incubated in endothelial growth media (EGM-2 media, Cambrex) for 12 days. At the end the incubation period, EPC colonies were counted. In another series of experiments, male Swiss-Webster mice were administered various compounds of the present invention via oral gavage using a ball-tipped gavage needle. Animals treated by oral gavage received a 10 ml/kg volume of either 0.5% carboxymethyl cellulose (CMC) with 0.1% Polysorbate 80 (vehicle control) or various doses (10-100 mg/kg) of a compound of the present invention in 0.5% CMC with 0.1% Polysorbate 80. Animals were dosed once daily for 3 or 4 days. Six hours after the final dosing, bone marrow samples were taken from one tibia of each animal. Bone marrow samples were then analyzed for EPC function and differentiation using an EPC colony forming assay as described above.

[5] = 20 mg/kg oral gavage once daily, 3 days
[6] = 20 mg/kg oral gavage once daily, 4 days
[7] = 60 mg/kg oral gavage once daily, 3 days
[8] = 60 mg/kg oral gavage once daily, 4 days
[9] = 100 mg/kg oral gavage once daily, 4 days

`Cc1cccc(C)c1Oc1ccc2c(C#N)nc(C(=O)NCC(=O)O)c(O)c2c1` [Compound C, {[1-Cyano-6-(2,6-dimethyl-phenoxy)-4-hydroxy-isoquinoline-3-carbonyl]-amino}-acetic acid] was tested, and the “Blood EPCs” value [1, 5] was 151.9 cells/μl, the “Percent Blood EPCs” value [1, 5] was 1.3 % gated cells and the “Blood EPCs” value [1, 6] was 125.9 cells/μl. The “Percent Blood EPCs” value [1, 6] was 0.7 % gated cells, the “Blood EPCs Fold Increase Over Control” value ([1]; 20 mg/kg oral, 3 days) was 4.2 fold and the “Percent Blood EPCs Fold Increase Over Control” value ([1]; 20 mg/kg oral, 3 days) was 1.8 fold. The “Blood EPCs Fold Increase Over Control” value ([1]; 20 mg/kg oral, 4 days) was 2.5 fold, the “Percent Blood EPCs Fold Increase Over Control” value ([1]; 20 mg/kg oral, 4 days) was 1.0 fold and the “Blood EPCs” value [1, 7] was 195.1 cells/μl. For the same compound, the “Percent Blood EPCs” value [1, 7] was 1.4 % gated cells, the “Blood EPCs” value [1, 8] was 240.0 cells/μl and the “Percent Blood EPCs” value [1, 8] was 1.0 % gated cells. The “Blood EPCs Fold Increase Over Control” value ([1]; 60 mg/kg oral, 3 days) was 5.4 fold, the “Percent Blood EPCs Fold Increase Over Control” value ([1]; 60 mg/kg oral, 3 days) was 1.9 fold and the “Blood EPCs Fold Increase Over Control” value ([1]; 60 mg/kg oral, 4 days) was 4.7 fold. For the same compound, the “Percent Blood EPCs Fold Increase Over Control” value ([1]; 60 mg/kg oral, 4 days) was 1.3 fold, the “Percent Bone Marrow EPCs” value [2, 5] was 2.2 % gated cells and the “Percent Bone Marrow EPCs” value [2, 6] was 0.6 % gated cells. For the same compound, the “Percent Bone Marrow EPCs Fold Increase Over Control” value ([2]; 20 mg/kg oral, 3 days) was 2.2 fold, the “Percent Bone Marrow EPCs Fold Increase Over Control” value ([2]; 20 mg/kg oral, 4 days) was 0.9 fold and the “Percent Bone Marrow EPCs” value [2, 7] was 3.2 % gated cells. For the same compound, the “Percent Bone Marrow EPCs” value [2, 8] was 0.9 % gated cells, the “Percent Bone Marrow EPCs Fold Increase Over Control” value ([2]; 60 mg/kg oral, 3 days) was 3.2 fold and the “Percent Bone Marrow EPCs Fold Increase Over Control” value ([2]; 60 mg/kg oral, 4 days) was 1.4 fold. The “Blood CFU-EC” value [3, 5] was 7.7 colonies/50,000 cells, the “Blood CFU-EC” value [3, 6] was 5.6 colonies/50,000 cells and the “Blood CFU-EC Fold Increase Over Control” value ([3]; 20 mg/kg oral, 3 days) was 4.3 fold. For the same compound, the “Blood CFU-EC Fold Increase Over Control” value ([3]; 20 mg/kg oral, 4 days) was 4.3 fold, the “Blood CFU-EC” value [3, 7] was 7.4 colonies/50,000 cells and the “Blood CFU-EC” value [3, 8] was 6.6 colonies/50,000 cells. The “Blood CFU-EC Fold Increase Over Control” value ([3]; 60 mg/kg oral, 3 days) was 4.14 fold, the “Blood CFU-EC Fold Increase Over Control” value ([3]; 60 mg/kg oral, 4 days) was 5.1 fold and the “Bone Marrow CFU-EC” value [4, 5] was 25.7 colonies/50,000 cells. The “Bone Marrow CFU-EC” value [4, 6] was 26.0 colonies/50,000 cells, the “Bone Marrow CFU-EC Fold Increase Over Control” value ([4]; 20 mg/kg oral, 3 days) was 5.1 fold and the “Bone Marrow CFU-EC Fold Increase Over Control” value ([4]; 20 mg/kg oral, 4 days) was 1.9 fold. The “Bone Marrow CFU-EC” value [4, 7] was 28.0 colonies/50,000 cells, the “Bone Marrow CFU-EC” value [4, 8] was 61.0 colonies/50,000 cells and the “Bone Marrow CFU-EC Fold Increase Over Control” value ([4]; 60 mg/kg oral, 3 days) was 5.6 fold. For the same compound, the “Bone Marrow CFU-EC Fold Increase Over Control” value ([4]; 60 mg/kg oral, 4 days) was 4.5 fold.

For `Cc1nc(C(=O)NCC(=O)O)c(O)c2ccc(Oc3ccccc3)cc12` [Compound B, [(4-Hydroxy-1-methyl-7-phenoxy-isoquinoline-3-carbonyl)-amino]-acetic acid], the “Blood EPCs” value [1, 7] was 10.4 cells/μl, the “Percent Blood EPCs” value [1, 7] was 1.0 % gated cells and the “Blood EPCs Fold Increase Over Control” value ([1]; 60 mg/kg oral, 3 days) was 1.0 fold. The “Percent Blood EPCs Fold Increase Over Control” value ([1]; 60 mg/kg oral, 3 days) was 0.8 fold, the “Blood EPCs” value [1, 9] was 304.0 cells/μl and the “Percent Blood EPCs” value [1, 9] was 3.0 % gated cells. The “Blood EPCs Fold Increase Over Control” value ([1]; 100 mg/kg oral, 4 days) was 8.2 fold, the “Percent Blood EPCs Fold Increase Over Control” value ([1]; 100 mg/kg oral, 4 days) was 4.3 fold and the “Percent Bone Marrow EPCs” value [2, 7] was 9.0 % gated cells. The “Percent Bone Marrow EPCs Fold Increase Over Control” value ([2]; 60 mg/kg oral, 3 days) was 2.7 fold, the “Percent Bone Marrow EPCs” value [2, 9] was 16.1 % gated cells and the “Percent Bone Marrow EPCs Fold Increase Over Control” value ([2]; 100 mg/kg oral, 4 days) was 2.1 fold. The “Blood CFU-EC” value [3, 7] was 12.4 colonies/50,000 cells, the “Blood CFU-EC Fold Increase Over Control” value ([3]; 60 mg/kg oral, 3 days) was 6.2 fold and the “Blood CFU-EC” value [3, 9] was 9.3 colonies/50,000 cells. For the same compound, the “Blood CFU-EC Fold Increase Over Control” value ([3]; 100 mg/kg oral, 4 days) was 1.9 fold, the “Bone Marrow CFU-EC” value [4, 7] was 22.0 colonies/50,000 cells and the “Bone Marrow CFU-EC Fold Increase Over Control” value ([4]; 60 mg/kg oral, 3 days) was 2.2 fold. For the same compound, the “Bone Marrow CFU-EC” value [4, 9] was 22.4 colonies/50,000 cells and the “Bone Marrow CFU-EC Fold Increase Over Control” value ([4]; 100 mg/kg oral, 4 days) was 2.9 fold.

With `COc1ccc(Oc2ccc3c(O)c(C(=O)NCC(=O)O)ncc3c2)cc1` [Compound A, {[4-Hydroxy-7-(4-methoxy-phenoxy)-isoquinoline-3-carbonyl]-amino}-acetic acid] the “Blood EPCs” value [1, 7] was 24.7 cells/μl, the “Percent Blood EPCs” value [1, 7] was 2.6 % gated cells and the “Blood EPCs Fold Increase Over Control” value ([1]; 60 mg/kg oral, 3 days) was 2.4 fold. For the same compound, the “Percent Blood EPCs Fold Increase Over Control” value ([1]; 60 mg/kg oral, 3 days) was 2.0 fold, the “Blood EPCs” value [1, 9] was 309.0 cells/μl and the “Percent Blood EPCs” value [1, 9] was 3.2 % gated cells. For the same compound, the “Blood EPCs Fold Increase Over Control” value ([1]; 100 mg/kg oral, 4 days) was 8.4 fold, the “Percent Blood EPCs Fold Increase Over Control” value ([1]; 100 mg/kg oral, 4 days) was 4.7 fold and the “Percent Bone Marrow EPCs” value [2, 7] was 6.7 % gated cells. For the same compound, the “Percent Bone Marrow EPCs Fold Increase Over Control” value ([2]; 60 mg/kg oral, 3 days) was 2.0 fold, the “Percent Bone Marrow EPCs” value [2, 9] was 14.1 % gated cells and the “Percent Bone Marrow EPCs Fold Increase Over Control” value ([2]; 100 mg/kg oral, 4 days) was 1.8 fold. For the same compound, the “Blood CFU-EC” value [3, 7] was 16.8 colonies/50,000 cells, the “Blood CFU-EC Fold Increase Over Control” value ([3]; 60 mg/kg oral, 3 days) was 8.4 fold and the “Blood CFU-EC” value [3, 9] was 17.8 colonies/50,000 cells. The “Blood CFU-EC Fold Increase Over Control” value ([3]; 100 mg/kg oral, 4 days) was 3.63 fold, the “Bone Marrow CFU-EC” value [4, 7] was 29.0 colonies/50,000 cells and the “Bone Marrow CFU-EC Fold Increase Over Control” value ([4]; 60 mg/kg oral, 3 days) was 3.0 fold. For the same compound, the “Bone Marrow CFU-EC” value [4, 9] was 24.8 colonies/50,000 cells and the “Bone Marrow CFU-EC Fold Increase Over Control” value ([4]; 100 mg/kg oral, 4 days) was 3.2 fold.
